One assay addresses p38/MK2 (Homo sapiens (Human), UniProt Q16539). The assay is described as follows: p38α/MK2 cascade assay (phosphorylation of Hsp27 peptide, Caliper LabChip 3000). The class given is biochemical. To be noted: activated p38α 20 pM, His6-MK2 1 nM, Hsp27 peptide 1 μM, MgATP 10 μM; two values per cell. On the procedure:
P38 Inhibitory Potency and P38/MK2 Substrate Selectivity: The novel, MK2 substrate-selective inhibitory mechanism of compounds is evaluated in enzyme assays comparing inhibitor potency in blocking p38/MK2 versus p38/PRAK induced phosphorylation of an HSP-27 derived peptide substrate. The ability of compounds to inhibit activated phospho-p38α is evaluated using a p38α/MK2 and a p38α/PRAK cascade assay format. […] Activation of MK2 or PRAK by p38α is quantitated by measuring the phosphorylation of a fluorescently-labeled, MK2 specific peptide substrate, Hsp27 peptide ([…]). The phosphorylation of the Hsp27 peptide is quantified using the Caliper LabChip 3000. Kinase reactions is carried out in a 384-well plate (Matrical, MP101-1-PP) in 20 mM HEPES pH 7.5, 10 mM MgCl2, 0.0005% Tween-20, 0.01% BSA, 1 mM DTT, and 2% DMSO. […] The p38α compound inhibitory potency is quantitated from dose-response IC50 values or Ki values from p38α/MK2 cascade assays while the substrate selectivity is calculated as a ratio of p38α/PRAK:p38α/MK2 IC50 values. Species compounds of Formula (I), described hereinabove, evaluated in this assay, are expected to provide a therapeutic benefit in the treatment of p38 kinase mediated diseases, such as autoimmune diseases and lymphoma.

The next assay deals with p38/PRAK (Homo sapiens (Human), UniProt Q16539). The assay is described as follows: p38α/PRAK cascade assay (phosphorylation of Hsp27 peptide, Caliper LabChip 3000). To be noted: activated p38α 20 pM, GST-PRAK 1 nM, Hsp27 peptide 1 μM, MgATP 10 μM; two values per cell. The class given is biochemical. On the procedure: P38 Inhibitory Potency and P38/MK2 Substrate Selectivity: The novel, MK2 substrate-selective inhibitory mechanism of compounds is evaluated in enzyme assays comparing inhibitor potency in blocking p38/MK2 versus p38/PRAK induced phosphorylation of an HSP-27 derived peptide substrate. The ability of compounds to inhibit activated phospho-p38α is evaluated using a p38α/MK2 and a p38α/PRAK cascade assay format. The kinase activity of p38α is determined by its ability to phosphorylate GST-MK2 or GST-PRAK. Activation of MK2 or PRAK by p38α is quantitated by measuring the phosphorylation of a fluorescently-labeled, MK2 specific peptide substrate, Hsp27 peptide ([…]). The phosphorylation of the Hsp27 peptide is quantified using the Caliper LabChip 3000. Kinase reactions is carried out in a 384-well plate (Matrical, MP101-1-PP) in 20 mM HEPES pH 7.5, 10 mM MgCl2, 0.0005% Tween-20, 0.01% BSA, 1 mM DTT, and 2% DMSO. […] The p38α compound inhibitory potency is quantitated from dose-response IC50 values or Ki values from p38α/MK2 cascade assays while the substrate selectivity is calculated as a ratio of p38α/PRAK:p38α/MK2 IC50 values. Species compounds of Formula (I), described hereinabove, evaluated in this assay, are expected to provide a therapeutic benefit in the treatment of p38 kinase mediated diseases, such as autoimmune diseases and lymphoma.
Chain of p38/PRAK (Q16539 whole entry): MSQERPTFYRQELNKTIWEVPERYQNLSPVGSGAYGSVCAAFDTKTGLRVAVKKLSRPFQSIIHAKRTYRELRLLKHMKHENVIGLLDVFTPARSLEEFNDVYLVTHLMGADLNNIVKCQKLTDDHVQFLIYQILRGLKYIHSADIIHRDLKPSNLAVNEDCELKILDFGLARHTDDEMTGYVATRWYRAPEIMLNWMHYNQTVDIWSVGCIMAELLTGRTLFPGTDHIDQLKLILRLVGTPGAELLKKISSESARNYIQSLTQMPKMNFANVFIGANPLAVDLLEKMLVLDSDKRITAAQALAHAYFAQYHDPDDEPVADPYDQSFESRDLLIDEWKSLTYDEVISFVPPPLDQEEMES

These results are taken from patent US9365546B2, “Substituted pyridinone-pyridinyl compounds” (CONFLUENCE LIFE SCIENCES INC., priority 2010, dated 2016).

Values joined by “and” are separate entries in the source; they are usually repeats but may differ in a detail not shown here. Identical values can stand only once.

Chain of p38/MK2 (Q16539 whole entry): as above
Chain of p38/MK2 (P49137 whole entry partner): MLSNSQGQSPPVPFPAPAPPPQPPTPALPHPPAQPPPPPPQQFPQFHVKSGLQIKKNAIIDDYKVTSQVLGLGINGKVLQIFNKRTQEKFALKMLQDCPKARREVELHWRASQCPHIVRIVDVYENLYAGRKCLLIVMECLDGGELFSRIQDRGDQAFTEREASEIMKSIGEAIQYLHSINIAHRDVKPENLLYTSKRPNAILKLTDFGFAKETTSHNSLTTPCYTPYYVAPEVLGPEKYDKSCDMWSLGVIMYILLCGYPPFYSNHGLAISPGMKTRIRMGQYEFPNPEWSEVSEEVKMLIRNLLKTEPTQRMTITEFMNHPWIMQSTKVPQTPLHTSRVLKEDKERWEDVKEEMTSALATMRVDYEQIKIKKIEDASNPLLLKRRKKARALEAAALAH

One may read the IC50 as the concentration that gives 50% inhibition. Low readings indicate greater potency in that assay, high ones weaker potency in that assay. Take `Cc1cnc(-c2ccnc(C(C)(C)C)n2)cc1-n1c(C)cc(OCc2ccc(F)cc2F)c(Cl)c1=O` [Example 285, 2′-(2-(tert-butyl)pyrimidin-4-yl)-3-chloro-4-((2,4-difluorobenzyl)oxy)-5′,6-dimethyl-2H-[1,4′-bipyridin]-2-one]: the IC50 on p38/MK2 was 18 nM and 26 nM; at p38/PRAK it was 121 nM and 210 nM.
`Cc1cnc(-c2ccnc(C(C)(C)O)n2)cc1-n1c(C)cc(OCc2ccc(F)cc2F)c(Cl)c1=O` [Example 284, 3-chloro-4-((2,4-difluorobenzyl)oxy)-2′-(2-(2-hydroxypropan-2-yl)pyrimidin-4-yl)-5′,6-dimethyl-2H-[1,4′-bipyridin]-2-one]: the IC50 on p38/MK2 is 6.4 nM and 7.3 nM; at p38/PRAK, 138 nM and 144 nM.
